From patent EP2794556B1, “BIS-(ARYL/HETEROARYL)-METHYLENE COMPOUNDS, PHARMACEUTICAL COMPOSITIONS CONTAINING SAME AND THEIR USE FOR TREATING CANCER” (Gleason, James L., priority 2011, dated 2013)

Key:
NCI-H522 = assay: NCI 60 cell panel
HCC-2998 = assay: NCI 60 cell panel
[1] = tested on: 60 cell panel of human carcinoma cell lines; assay: NCI 60 cell panel, summary in text; format: cell-based
SW-620 = assay: NCI 60 cell panel
786-0 = assay: NCI 60 cell panel
OVCAR-3 = assay: NCI 60 cell panel
SR = assay: NCI 60 cell panel
SCC25 cells = assay: EdU cell growth assay
Experimental: (§1) EdU cell growth assay. Click-iT EdU Alexa Fluor high-throughput imaging (HCS) assay for cell proliferation. HCS assays were performed on AT84 mouse squamous carcinoma cell line (ATCC) following the manufacturer's instruction (Molecular Probes, Invitrogen). […] All samples were in triplicate.

HOP-62 = assay: NCI 60 cell panel
MOLT-4 = assay: NCI 60 cell panel
HL-60(TB) = assay: NCI 60 cell panel
HOP-92 = assay: NCI 60 cell panel
HT29 = assay: NCI 60 cell panel
SF-539 = assay: NCI 60 cell panel
UACC-62 = assay: NCI 60 cell panel
HS 578T = assay: NCI 60 cell panel
CAKI-1 = assay: NCI 60 cell panel
T-47D = assay: NCI 60 cell panel
MDA-MB-231/ATCC = assay: NCI 60 cell panel
COLO 205 = assay: NCI 60 cell panel
ACHN = assay: NCI 60 cell panel
MDA-MB-435 = assay: NCI 60 cell panel
AT84 cells = assay: EdU cell growth assay; settings: AT84 cells
Experimental: as §1

SK-MEL-2 = assay: NCI 60 cell panel
HCT-116 = assay: NCI 60 cell panel
PC-3 = assay: NCI 60 cell panel
NCI-H226 = assay: NCI 60 cell panel
UACC-257 = assay: NCI 60 cell panel
SK-MEL-28 = assay: NCI 60 cell panel
OVCAR-8 = assay: NCI 60 cell panel
NCI/ADR-RES = assay: NCI 60 cell panel

Q: Which results are given for `CCC(CC)(c1ccc(OCC(=O)NO)c(C)c1)c1ccc(OCC(O)C(C)(C)C)c(C)c1` (racemic) [JF-B01, N-Hydroxy-2-(4-(3-(4-(2-hydroxy-3,3-dimethylbutoxy)-3-methylphenyl)pentan-3-yl)-2-methylphenoxy)acetamide]?
A: GI50 (NCI-H522; Homo sapiens, NCI-H522): 0.196 µM; CC50 (NCI-H522; Homo sapiens, NCI-H522, read-out: LC50): 19.5 µM; TGI (NCI-H522; Non-Small Cell Lung Cancer, NCI-H522): 5.18E-7; TGI (HCC-2998; Colon Cancer, HCC-2998): 1.55E-5; GI50 (HCC-2998; Homo sapiens, HCC 2998): 4.23 µM; CC50 (HCC-2998; Homo sapiens, HCC 2998, read-out: LC50): 41.2 µM; antiproliferative activity ([1]; all cell lines of the panel): antiproliferative activity in all cell lines; full growth inhibition ([1]; melanoma cell lines, 8 out of 9 cell lines): ≤ 7 µM; TGI (SW-620; Colon Cancer, SW-620): 1.25E-5; GI50 (SW-620; Homo sapiens, SW-620): 2.3 µM; CC50 (SW-620; Homo sapiens, SW-620, read-out: LC50): 35.4 µM; GI50 (786-0; Homo sapiens, 786-0): 11.3 µM; CC50 (786-0; Homo sapiens, 786-0, read-out: LC50): 51.3 µM; TGI (786-0; Renal Cancer, 786-0): 2.41E-5; GI50 (OVCAR-3; Homo sapiens, OVCAR-3): 1.73 µM; CC50 (OVCAR-3; Homo sapiens, OVCAR-3, read-out: LC50): 21.6 µM; TGI (OVCAR-3; Ovarian Cancer, OVCAR-3): 5.59E-6; GI50 (SR; Homo sapiens): 1.21 µM; CC50 (SR; Homo sapiens, read-out: LC50): 24.9 µM; TGI (SR; Leukemia): 3.91E-6; antiproliferative potency, fold less potent than 1,25D (SCC25 cells): 10 fold; EdU incorporation at higher concentrations (SCC25 cells; higher concentrations): completely abolished EdU incorporation; GI50 (HOP-62; Homo sapiens, HOP-62): 3.69 µM; CC50 (HOP-62; Homo sapiens, HOP-62, read-out: LC50): 38.3 µM; TGI (HOP-62; Non-Small Cell Lung Cancer, HOP-62): 1.47E-5; GI50 (MOLT-4; Homo sapiens, MOLT-4): 1.15 µM; CC50 (MOLT-4; Homo sapiens, MOLT-4, read-out: LC50): 40.9 µM; TGI (MOLT-4; Leukemia, MOLT-4): 4.60E-6; GI50 (HL-60(TB); Homo sapiens, HL-60): 0.944 µM; CC50 (HL-60(TB); Homo sapiens, HL-60, read-out: LC50): 8.8 µM; TGI (HL-60(TB); Leukemia, HL-60(TB)): 2.93E-6; GI50 (HOP-92; Homo sapiens, HOP-92): 3.08 µM; CC50 (HOP-92; Homo sapiens, HOP-92, read-out: LC50): 49.2 µM; TGI (HOP-92; Non-Small Cell Lung Cancer, HOP-92): 1.53E-5; TGI (HT29; Colon Cancer, HT29): 1.00E-5; GI50 (HT29; Homo sapiens, HT-29): 1.93 µM; CC50 (HT29; Homo sapiens, HT-29, read-out: LC50): 31.7 µM; TGI (SF-539; CNS Cancer, SF-539): 2.74E-5; GI50 (SF-539; Homo sapiens, SF-539): 13.7 µM; CC50 (SF-539; Homo sapiens, SF-539, read-out: LC50): 54.9 µM; GI50 (UACC-62; Homo sapiens, UACC-62): 1.68 µM; CC50 (UACC-62; Homo sapiens, UACC-62, read-out: LC50): 11.5 µM; TGI (UACC-62; Melanoma, UACC-62): 4.22E-6; TGI (HS 578T; Breast Cancer, HS 578T): 2.65E-5; GI50 (HS 578T; Homo sapiens, Hs-578T): 8.8 µM; CC50 (HS 578T; Homo sapiens, Hs-578T, read-out: LC50): 72.5 µM; GI50 (CAKI-1; Homo sapiens, CAKI-1): 4.98 µM; CC50 (CAKI-1; Homo sapiens, CAKI-1, read-out: LC50): 41.3 µM; TGI (CAKI-1; Renal Cancer, CAKI-1): 1.71E-5; TGI (T-47D; Breast Cancer, T-47D): 6.69E-6; GI50 (T-47D; Homo sapiens, T47D): 2.21 µM; CC50 (T-47D; Homo sapiens, T47D, read-out: LC50): 27.1 µM; TGI (MDA-MB-231/ATCC; Breast Cancer, MDA-MB-231/ATCC): 8.45E-6; GI50 (MDA-MB-231/ATCC; Homo sapiens, MDA-MB-231): 2.18 µM; CC50 (MDA-MB-231/ATCC; Homo sapiens, MDA-MB-231, read-out: LC50): 31.6 µM; TGI (COLO 205; Colon Cancer, COLO 205): 5.94E-6; GI50 (COLO 205; Homo sapiens, COLO 205): 2.33 µM; CC50 (COLO 205; Homo sapiens, COLO 205, read-out: LC50): 20.3 µM; GI50 (ACHN; Homo sapiens): 3.2 µM; CC50 (ACHN; Homo sapiens, read-out: LC50): 35.6 µM; TGI (ACHN; Renal Cancer): 1.27E-5; GI50 (MDA-MB-435; Homo sapiens, MDA-MB-435): 2.08 µM; CC50 (MDA-MB-435; Homo sapiens, MDA-MB-435, read-out: LC50): 16.7 µM; TGI (MDA-MB-435; Melanoma, MDA-MB-435): 5.20E-6; antiproliferative potency, fold less potent than 1,25D (AT84 cells): 10 fold; GI50 (SK-MEL-2; Homo sapiens, SK-MEL-2): 1.9 µM; CC50 (SK-MEL-2; Homo sapiens, SK-MEL-2, read-out: LC50): 30 µM; TGI (SK-MEL-2; Melanoma, SK-MEL-2): 5.24E-6; TGI (HCT-116; Colon Cancer, HCT-116): 1.09E-5; GI50 (HCT-116; Homo sapiens, HCT-116): 2.13 µM; CC50 (HCT-116; Homo sapiens, HCT-116, read-out: LC50): 33.4 µM; GI50 (PC-3; Homo sapiens, PC-3): 3.04 µM; CC50 (PC-3; Homo sapiens, PC-3, read-out: LC50): 41.8 µM; TGI (PC-3; Prostate Cancer, PC-3): 1.23E-5; GI50 (NCI-H226; Homo sapiens, NCI-H226): 1.98 µM; CC50 (NCI-H226; Homo sapiens, NCI-H226, read-out: LC50): 33 µM; TGI (NCI-H226; Non-Small Cell Lung Cancer, NCI-H226): 1.07E-5; GI50 (UACC-257; Homo sapiens, UACC-257): 3.34 µM; CC50 (UACC-257; Homo sapiens, UACC-257, read-out: LC50): 38.8 µM; TGI (UACC-257; Melanoma, UACC-257): 1.27E-5; GI50 (SK-MEL-28; Homo sapiens, SK-MEL-28): 4.75 µM; CC50 (SK-MEL-28; Homo sapiens, SK-MEL-28, read-out: LC50): 42.5 µM; TGI (SK-MEL-28; Melanoma, SK-MEL-28): 1.75E-5; GI50 (OVCAR-8; Homo sapiens, OVCAR-8): 6.27 µM; CC50 (OVCAR-8; Homo sapiens, OVCAR-8, read-out: LC50): 51.1 µM; TGI (OVCAR-8; Ovarian Cancer, OVCAR-8): 2.03E-5; GI50 (NCI/ADR-RES; Homo sapiens): 4.39 µM; CC50 (NCI/ADR-RES; Homo sapiens, read-out: LC50): 41.9 µM; TGI (NCI/ADR-RES; Ovarian Cancer): 1.67E-5
